{"source": "patent US20240016784A1", "about": "“Y BOX BINDING PROTEIN 1 INHIBITORS” (Oregon Health & Science University, priority 2020, published 2024)", "key": {"YB-1 and MDR1 expression": {"test_system": "YB-1 and MDR1 expression", "test": "Immunohistochemistry of ID8 tumor xenograft samples", "format": "in vivo, mice", "conditions": "SU056 20 mg/kg", "description": "Out of six targets identified, we selected proteins whose thermal shift is above 5° in the presence of SU056 for further study of protein expression after treatment. […] To study the in vivo effects of SU056 treatment, we analyzed ID8 tumor xenograft samples via immunohistochemistry (IHC). […] To identify the broader effects of SU056 on YB-1 and its downstream protein/activity in different ovarian cancer cell lines, we selected six different cell lines and treated them with SU056 (2.5 μM) for 12 h. Cells were analyzed for YB-1 and CD44 expression and Multidrug resistance 1 (MDR1, ABC pump mediated efflux). […] Finally, we tested the time kinetics and dose-dependent effects of SU056 on YB-1 expression. OVCAR4, OVCAR8, and SKOV3 cells were treated with SU056 (1, 2.5, and 5 μM) for 3, 6, 12, and 24 h and YB-1 expression was measured using YB-1 ELISA. […] 5 μM treatment for 24 h inhibited YB-1 completely (100%) in all three OC cells (FIG. 4E).\nImmunohistochemistry: Fixed tumors and organs were embedded in paraffin. Each block was cut in 5 μm sections and fixed on poly-L lysine-coated slides. […]\nFIGS. 4A-4E: SU056 inhibits YB-1. […] FIG. 4C) Respective OC cells were treated with 2.5 μM SU056 for 12 h and YB-1 & CD44 expression and multidrug resistance activity was measured as described in the ‘method’ section. The % inhibition was calculated and compared to the control for the respective cell line. […]"}, "[1]": {"test_system": "efflux of paclitaxel in OC cells", "test": "Paclitaxel efflux assay", "format": "cell-based", "conditions": "SU056 co-treatment vs only paclitaxel-treated cells", "from_the_text": "YB-1 is involved in the emergence of cisplatin and taxane drug resistance (Kang et al., 2013, Mo et al., 2016). Therefore, we tested whether SU056 synergizes with chemotherapies such as paclitaxel to modulate YB-1. To measure this, we performed a dose dependent combination study of SU056 and paclitaxel. […] ABCB1/MDR1 drug efflux pumps are also known to play an important downstream role with YB-1 in increased taxol efflux and subsequent TR in cancer. To evaluate whether SU056 affects drug efflux, we used Alexa Fluor-488-tagged paclitaxel to measure taxol efflux in vitro. […] Efflux is primarily driven by the ATP-binding cassette transporters (ABC pumps) present on the cell surface (Genovese et al., 2017). We examined the expression of MDR1 and YB-1 in OVCAR8 cells treated with vehicle, SU056, and paclitaxel combinations via Western blot.\nPaclitaxel efflux assay: OC cells were treated with 5 nM Oregon Green™ 488-conjugated paclitaxel (Molecular Probes, #P22310) for 1 h. Cells were washed and incubated in phenol red-free DMEM media supplemented with 10% FBS. After each respective time point (30, 60, 120, 180 minutes), the media was collected and centrifuged to remove floating cells. The fluorescence intensity of efflux paclitaxel in media was read at Ex 496 and Em 524 using a multimode plate reader.\nCombination index values for paclitaxel and SU056. […] FIG. 7C) Immunoblotting of YB-1 and MDR1. […]"}, "ovarian cancer cells": {"test_system": "ovarian cancer cells", "test": "Apoptotic cell death assay (Annexin-FITC)", "format": "cell-based", "conditions": "24 h treatment; Annexin-FITC staining", "description": "To determine whether proliferation inhibition was the dominant factor driving the reduction in OC viability seen with AzP treatment, we used propidium iodide and annexin-FITC stains with flow cytometry to measure the distribution of cell cycle phases after treatment. […] Furthermore, in the Boyden chamber assay for cell migration, SU093 inhibited cell migration by 40-46% (1 μM, P<0.05) in different OC cell lines.\nApoptotic cell death assay: Cells were plated and treated as described in cell cycle analysis assay above. Treated cells were incubated for 24 h and both live and dead cells were collected. Cells were stained with Annexin V and PI using FITC Annexin V apoptosis detection kit (BD Pharmingen, San Jose, CA) by following the manufacturer's protocol. Guava® easyCyte™ Flow Cytometer was used to analyze the stained cells.\nFIG. 1A) Lead optimization of SU093 to obtain SU056. FIG. 1B) IC50 values of SU093 and SU056 on various ovarian cancer cells. Clonogenic survival of OC cells treated with SU093 or SU056. […] FIG. 1C) Representative colony formation from respective wells. FIG. 1D) Number of colonies formed after SU093 and SU056 treatment. […] FIG. 1F) Cell cycle distribution of propidium iodide (PI)-stained OVCAR8, SKOV3, and ID8 cells. […] FIG. 1G) Effects of SU093 and SU056 on apoptotic cell death analyzed by Annexin-FITC staining. […] FIG. 1H) Cell migration assay."}}, "data": [{"smiles": "O=C1OCC2=C1C(c1cccc(F)c1)c1cc3c(cc1N2CCO)OCO3", "note": "(stereo not drawn) [SU056, 9-(3-fluorophenyl)-5-(2-hydroxyethyl)-6,9-dihydro-[1,3]dioxolo[4,5-g]furo[3,4-b]quinolin-8(5H)-one]", "values": [{"measurement": "YB-1 and MDR1 expression in tumors (IHC)", "setting": "YB-1 and MDR1 expression", "result": "strongly inhibits YB-1 expression followed by downregulation of downstream MDR1"}, {"measurement": "efflux of Alexa Fluor-488-tagged paclitaxel", "setting": "[1]", "result": "significantly inhibits the efflux of paclitaxel"}, {"measurement": "apoptotic cell death", "setting": "ovarian cancer cells", "result": "induce apoptotic cell death"}]}]}
